Measurements from US8309546B2, “Morpholinopurine derivatives” (Daiichi Sankyo Company, Limited, priority 2008, dated 2012).

Tests used:
[1] = system: human ovary cancer cell strain IGROV1; assay: Cell growth inhibition test (MTT), IGROV1; assay type: cell-based; settings: IGROV-1, 72 h, IGROV1, 3 days culture, read-out: concentration exhibiting anti-cell effect (GI50)
In short: (§1)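 Cells were seeded per well (AN3CA 5000, IGROV1 1000, HT29 5000), dosed next day and cultured 3 days at 37° C in 5% CO2. Viable cells were read by MTT (4 h, DMSO-solubilized formazan, A540). GI50 was interpolated between the two concentrations bracketing 50% growth rate (T/C %, corrected for day-0 absorbance).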

[2] = system: human colon cancer cell strain HT29; assay: Cell growth inhibition test (MTT), HT29; assay type: cell-based; settings: HT-29, 72 h, HT29, 3 days culture, read-out: concentration exhibiting anti-cell effect (GI50)
In short: as §1

[3] = system: human endometrial cancer cell strain AN3CA; assay: Cell growth inhibition test (MTT), AN3CA; assay type: cell-based; settings: AN3-CA, 72 h, 3 days culture, read-out: concentration exhibiting anti-cell effect (GI50)
In short: as §1

[4] = molecular target: T1, human mTOR (His-tagged mTOR (1362C)) (Homo sapiens, UniProt P42345); assay: mTOR kinase activity inhibition assay; assay type: biochemical; settings: HTRF, read-out: IC50 against mTOR
T1 construct: the 1362 to 2549 amino acid portion on the C terminus side of human mTOR; His tag (N); made in house
T1 sequence (P42345 1362-2549): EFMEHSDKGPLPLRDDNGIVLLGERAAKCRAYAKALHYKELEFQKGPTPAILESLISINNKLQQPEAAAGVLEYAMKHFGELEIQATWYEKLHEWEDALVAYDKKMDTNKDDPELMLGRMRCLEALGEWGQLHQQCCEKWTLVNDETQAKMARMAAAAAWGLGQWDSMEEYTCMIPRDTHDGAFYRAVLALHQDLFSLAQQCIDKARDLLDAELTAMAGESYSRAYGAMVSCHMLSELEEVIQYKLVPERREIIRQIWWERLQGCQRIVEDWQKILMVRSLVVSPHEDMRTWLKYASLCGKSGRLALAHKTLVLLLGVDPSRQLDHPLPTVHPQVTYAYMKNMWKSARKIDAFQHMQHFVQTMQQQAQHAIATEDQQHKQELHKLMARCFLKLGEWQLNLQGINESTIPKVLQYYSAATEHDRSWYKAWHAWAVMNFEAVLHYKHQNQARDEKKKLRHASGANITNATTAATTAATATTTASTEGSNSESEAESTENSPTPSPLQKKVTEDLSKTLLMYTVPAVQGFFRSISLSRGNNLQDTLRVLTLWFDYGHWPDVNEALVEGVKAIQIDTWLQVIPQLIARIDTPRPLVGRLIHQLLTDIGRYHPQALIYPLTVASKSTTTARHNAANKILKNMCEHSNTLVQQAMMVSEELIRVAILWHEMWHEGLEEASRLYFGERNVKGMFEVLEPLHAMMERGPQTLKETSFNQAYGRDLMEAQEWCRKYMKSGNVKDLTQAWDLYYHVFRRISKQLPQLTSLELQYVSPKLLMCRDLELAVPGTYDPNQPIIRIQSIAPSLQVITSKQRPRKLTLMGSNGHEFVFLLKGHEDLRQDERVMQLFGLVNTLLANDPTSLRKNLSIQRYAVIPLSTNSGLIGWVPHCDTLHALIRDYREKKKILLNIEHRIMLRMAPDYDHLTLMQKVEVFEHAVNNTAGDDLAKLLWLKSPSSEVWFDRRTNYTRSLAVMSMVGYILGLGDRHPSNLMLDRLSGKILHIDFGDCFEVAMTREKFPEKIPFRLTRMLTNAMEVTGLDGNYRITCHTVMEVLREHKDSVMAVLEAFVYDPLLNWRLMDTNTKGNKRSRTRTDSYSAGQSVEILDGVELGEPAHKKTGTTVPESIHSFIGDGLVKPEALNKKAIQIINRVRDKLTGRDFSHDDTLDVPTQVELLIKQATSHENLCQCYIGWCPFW
In short: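 Crude His-tagged mTOR (aa 1362–2549) from stable HEK293 cells, with 8 μg/ml biotinylated peptide in 50 mM HEPES pH 7.5, 20 mM MnCl2; compound diluted in 20 μM ATP solution, reaction 3 h at room temperature. Phospho-peptide detected by HTRF (anti-phospho-S6K Thr389 cryptate/streptavidin-XL665, overnight at 4°C), 665/620 nm ratio. IC50 derived from curve fit of % inhibition.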

Row | SMILES | GI50 [1] [µM] | GI50 [2] [µM] | GI50 [3] [µM] | IC50 [4] [µM]
1 | CC[C@H]1CN(c2nc3c(N4CCOCC4)nc(-c4cnc(N)nc4)nc3n2CC(F)(F)F)CCN1C(=O)[C@H](C)O [Example 77, (2S)-1-{(2S)-4-[2-(2-Aminopyrimidin-5-yl)-6-morpholin-4-yl-9-(2,2,2-trifluoroethyl)-9H-purin-8-yl]-2-ethylpiperazin-1-yl}-1-oxopropan-2-ol] | ≤ 5 | ≤ 5 | ≤ 5 | 0.01 to 0.03
2 | CC(C)Cn1c(N2CCN(S(C)(=O)=O)[C@@H](C)C2)nc2c(N3CCOCC3)nc(-c3cnc(N)nc3)nc21 [Example 53, 5-{9-Isobutyl-8-[(3S)-3-methyl-4-(methylsulfonyl)piperazin-1-yl]-6-morpholin-4-yl-9H-purin-2-yl}pyrimidin-2-amine] | ≤ 5 | ≤ 5 | ≤ 5 | 0.01 to 0.03
3 | CS(=O)(=O)N1CCN(c2nc3c(N4CCOCC4)nc(-c4cnc(N)nc4)nc3n2CC2CC2)CC1 [Example 3, 5-{9-(Cyclopropylmethyl)-8-[4-(methylsulfonyl)piperazin-1-yl]-6-morpholin-4-yl-9H-purin-2-yl}pyrimidin-2-amine] | ≤ 5 | ≤ 5 | ≤ 5 | 0.01 to 0.03
4 | CC[C@@H]1CN(c2nc3c(N4CCOCC4)nc(-c4cnc(N)nc4)nc3n2CC(F)(F)F)CCN1C(=O)[C@H](C)O [Example 79] | ≤ 5 | ≤ 5 | ≤ 5 | < 0.01
5 | C[C@@H]1CN(c2nc3c(N4CCOCC4)nc(-c4cnc(N)nc4)nc3n2CC(F)(F)F)C[C@H](C)N1 [Example 14, 5-[8-(cis-3,5-Dimethylpiperazin-1-yl)-6-morpholin-4-yl-9-(2,2,2-trifluoroethyl)-9H-purin-2-yl]pyrimidin-2-amine] | ≤ 5 | ≤ 5 | ≤ 5 | 0.01 to 0.03
6 | CC(C)Cn1c(N2CCN(C(=O)CO)CC2)nc2c(N3CCOCC3)nc(-c3cnc(N)nc3)nc21 [Example 89, 2-{4-[2-(2-Aminopyrimidin-5-yl)-9-isobutyl-6-morpholin-4-yl-9H-purin-8-yl]piperazin-1-yl}-2-oxoethanol] | ≤ 5 | ≤ 5 | ≤ 5 | 0.01 to 0.03
7 | CC(=O)N1CCN(c2nc3c(N4CCOCC4)nc(-c4cnc(N)nc4)nc3n2CC(F)(F)F)C[C@H]1C [Example 60, 5-{8-[(3R)-4-Acetyl-3-methylpiperazin-1-yl]-6-morpholin-4-yl-9-(2,2,2-trifluoroethyl)-9H-purin-2-yl}pyrimidin-2-amine] | ≤ 5 | ≤ 5 | ≤ 5 | < 0.01
8 | CNc1ncc(-c2nc(N3CCOCC3)c3nc(N4CCN(CC(=O)N(C)C)[C@H](C)C4)n(CC(F)(F)F)c3n2)cn1 [Example 87, N,N-Dimethyl-2-[(2R)-2-methyl-4-{2-[2-(methylamino)pyrimidin-5-yl]-6-morpholin-4-yl-9-(2,2,2-trifluoroethyl)-9H-purin-8-yl}piperazin-1-yl]acetamide] | ≤ 5 | ≤ 5 | ≤ 5 | 0.01 to 0.03
9 | C[C@@H](O)CC(=O)N1CCN(c2nc3c(N4CCOCC4)nc(-c4cnc(N)nc4)nc3n2CC(F)(F)F)CC1 [Example 70, (2R)-4-{4-[2-(2-Aminopyrimidin-5-yl)-6-morpholin-4-yl-9-(2,2,2-trifluoroethyl)-9H-purin-8-yl]piperazin-1-yl}-4-oxobutan-2-ol] | ≤ 5 | ≤ 5 | ≤ 5 | < 0.01
10 | CC(=O)N1CCN(c2nc3c(N4CCOCC4)nc(-c4cnc(N)nc4)nc3n2CC(C)C)CC1 [Example 2, 5-[8-(4-Acetylpiperazin-1-yl)-9-isobutyl-6-morpholin-4-yl-9H-purin-2-yl]pyrimidin-2-amine] | ≤ 5 | ≤ 5 | ≤ 5 | 0.01 to 0.03

Second part, the molecule after the results:

Row | GI50 [1] [µM] | GI50 [2] [µM] | GI50 [3] [µM] | IC50 [4] [µM] | SMILES
11 | ≤ 5 | ≤ 5 | ≤ 5 | 0.1 to 0.5 | CC(=O)N1CCN(c2nc3c(N4CCOC[C@@H]4C)nc(-c4cnc(N)nc4C)nc3n2CC2CC2)CC1 [Example 128, 5-{8-(4-acetylpiperazin-1-yl)-9-(cyclopropylmethyl)-6-[(3S)-3-methylmorpholin-4-yl]-9H-purin-2-yl}-4-methylpyrimidin-2-amine]
12 | ≤ 5 | ≤ 5 | ≤ 5 | 0.01 to 0.03 | CC(C)Cn1c(N2CCN(C(=O)[C@H](C)O)CC2)nc2c(N3CCOC[C@@H]3C)nc(-c3cnc(N)nc3)nc21 [Example 131, (2S)-1-(4-{2-(2-Aminopyrimidin-5-yl)-9-isobutyl-6-[(3S)-3-methylmorpholin-4-yl]-9H-purin-8-yl}piperazin-1-yl)-1-oxopropan-2-ol]
13 | ≤ 5 | ≤ 5 | ≤ 5 | < 0.01 | C[C@H](O)C(=O)N1CCN(c2nc3c(N4CCOCC4)nc(-c4cnc(N)nc4)nc3n2CC(F)(F)F)C[C@@H]1C [Example 109, (2S)-1-{(2S)-4-[2-(2-Aminopyrimidin-5-yl)-6-morpholin-4-yl-9-(2,2,2-trifluoroethyl)-9H-purin-8-yl]-2-methylpiperazin-1-yl}-1-oxopropan-2-ol]
14 | ≤ 5 | ≤ 5 | ≤ 5 | 0.01 to 0.03 | C[C@H](O)C(=O)N1CCN(c2nc3c(N4CCOCC4)nc(-c4cnc(N)nc4)nc3n2CC2CC2)C[C@H]1C [Example 95, (2S)-1-{(2R)-4-[2-(2-Aminopyrimidin-5-yl)-9-(cyclopropylmethyl)-6-morpholin-4-yl-9H-purin-8-yl]-2-methylpiperazin-1-yl}-1-oxopropan-2-ol]
15 | ≤ 5 | ≤ 5 | ≤ 5 | 0.01 to 0.03 | CC(=O)N1CCN(c2nc3c(N4CCOCC4)nc(-c4cnc(N)nc4)nc3n2CC(C)C)C[C@H]1C [Example 99, 5-{8-[(3R)-4-Acetyl-3-methylpiperazin-1-yl]-9-isobutyl-6-morpholin-4-yl-9H-purin-2-yl}pyrimidin-2-amine]
16 | ≤ 5 | ≤ 5 | ≤ 5 | 0.01 to 0.03 | CC(=O)N1CCN(c2nc3c(N4CCOCC4)nc(-c4cnc(N)nc4)nc3n2CC2CC2)C[C@H]1C [Example 97, 5-{8-[(3R)-4-Acetyl-3-methylpiperazin-1-yl]-9-(cyclopropylmethyl)-6-morpholin-4-yl-9H-purin-2-yl}pyrimidin-2-amine]
17 | ≤ 5 | ≤ 5 | ≤ 5 | 0.01 to 0.03 | CC(=O)N1CCN(c2nc3c(N4CCOC[C@@H]4C)nc(-c4cnc(N)nc4)nc3n2CC(C)C)CC1 [Example 129, 5-{8-(4-Acetylpiperazin-1-yl)-9-isobutyl-6-[(3S)-3-methylmorpholin-4-yl]-9H-purin-2-yl}pyrimidin-2-amine]
18 | ≤ 5 | ≤ 5 | ≤ 5 | < 0.01 | CCC(=O)N1CCN(c2nc3c(N4CCOCC4)nc(-c4cnc(N)nc4)nc3n2CC(F)(F)F)CC1 [Example 117, 5-[6-Morpholin-4-yl-8-(4-propionylpiperazin-1-yl)-9-(2,2,2-trifluoroethyl)-9H-purin-2-yl]pyrimidin-2-amine]
19 | ≤ 5 | ≤ 5 | ≤ 5 | 0.01 to 0.03 | CC(C)Cn1c(N2CCN(C=O)CC2)nc2c(N3CCOC[C@@H]3C)nc(-c3cnc(N)nc3)nc21 [Example 132, 4-{2-(2-Aminopyrimidin-5-yl)-9-isobutyl-6-[(3S)-3-methylmorpholin-4-yl]-9H-purin-8-yl}piperazine-1-carboaldehyde]
20 | ≤ 5 | ≤ 5 | ≤ 5 | 0.01 to 0.03 | CC(C)Cn1c(N2CCN(C=O)[C@H](C)C2)nc2c(N3CCOCC3)nc(-c3cnc(N)nc3)nc21 [Example 100, (2R)-4-[2-(2-Aminopyrimidin-5-yl)-9-isobutyl-6-morpholin-4-yl-9H-purin-8-yl]-2-methylpiperazine-1-carboaldehyde]
21 | ≤ 5 | ≤ 5 | ≤ 5 | 0.01 to 0.03 | CC(C)Cn1c(N2CCN(C=O)CC2)nc2c(N3CCOCC3)nc(-c3cnc(N)nc3)nc21 [Example 90, 4-[2-(2-Aminopyrimidin-5-yl)-9-isobutyl-6-morpholin-4-yl-9H-purin-8-yl]piperazine-1-carboaldehyde]
22 | ≤ 5 | ≤ 5 | ≤ 5 | < 0.01 | CNc1ncc(-c2nc(N3CCOCC3)c3nc(N4CCN(C(C)=O)[C@@H](C)C4)n(CC(F)(F)F)c3n2)cn1 [Example 107, 5-{8-[(3S)-4-Acetyl-3-methylpiperazin-1-yl]-6-morpholin-4-yl-9-(2,2,2-trifluoroethyl)-9H-purin-2-yl}-N-methylpyrimidin-2-amine]
23 | ≤ 5 | ≤ 5 | ≤ 5 | 0.01 to 0.03 | CC(C)Cn1c(N2CCN(C(=O)[C@H](C)O)[C@@H](C)C2)nc2c(N3CCOCC3)nc(-c3cnc(N)nc3)nc21 [Example 104, (2S)-1-{(2S)-4-[2-(2-Aminopyrimidin-5-yl)-9-isobutyl-6-morpholin-4-yl-9H-purin-8-yl]-2-methylpiperazin-1-yl}-1-oxopropan-2-ol]
